Patent US9873693B2 (Sunesis Pharmaceuticals, Inc., priority 2006, dated 2018)
Read-outs that look alike come from different tables or passages of the source.

What was measured:
dephosphorylated PDK1 = dephosphorylated PDK1 (Homo sapiens (Human), UniProt O15530); assay: PDK1 kinase assay (coupled PDK1/AKT/FAM-crosstide, IMAP); assay type: biochemical; settings: 25 nM un-phosphorylated PDK1, 24 μM ATP; read-out: Inhibition of dephospo-PDK1 in vitro IC50
Method: A PDK1 kinase assay was performed as follows. PDK1 (amino acids 51-360) and AKT2 (amino acids 140-467 fused to PIFtide, amino acids […]) were expressed as N-terminally tagged GST fusion proteins in insect cells and purified to greater than 90% homogeneity. PDK1 protein was divided into two fractions, one of which was subsequently dephosphorylated. To generate dephosphorylated PDK1, the PDK1 was reacted with GST-tagged lambda-phosphatase in vitro. GST was subsequently cleaved proteolytically for both phosphorylated and dephosphorylated PDK1. Protein preparations were run on glutathione Sepharose columns to remove GST and GST-tagged lambda-phosphatase, if present. Phosphorylated PDK1 and dephosphorylated PDK1 were verified by mass-spectrometry. Enzyme activity was determined in a coupled PDK1/AKT/FAM-crosstide assay using either phosphorylated or unphosphorylated PDK1 and phosphorylation of FAM-crosstide was determined by standard IMAP protocol (Molecular Devices). For inhibition studies, compounds were titrated 3-fold in DMSO and diluted 40-fold into assay buffer (10 mM Tris HCl pH7.2; 10 mM MgCl2; 0.01% Triton X-100; 1 mM DTT) containing PDK1, AKT2, and FAM-crosstide. (final concentrations: 25 nM un-phosphorylated PDK1 or 0.5 nM phosphorylated PDK1, 30 nM unphosphorylated AKT2, and 100 nM crosstide substrate). The kinase reaction was initiated by adding ATP to a final concentration of 24 μM for both forms of PDK1 and incubated at 25° C. for 30 min. To detect assay product, the kinase reaction was combined with Progressive Binding Solution (1:600 Progressive Binding Reagent, 50% Buffer A, 50% Buffer B, Molecular Devices) in a 1:3 ratio. The mixture was incubated for 2 hours at 25° C. and the plate was scanned on an Analyst AD with excitation at 485 nm and emission at 530 nm. The fluorescence polarization value “P” is defined by the equation below. The value “mP” is generated by multiplying the P value for each reaction well by a factor of 1000. The value “ΔmP” for each well is the mP value for that well minus the mP value for the average negative control. P=(Fpar−Fperp)/(Fpar+Fperp) Eq.:
Where “par” is fluorescence intensity parallel to the excitation plane; and “perp” is fluorescence intensity perpendicular to the excitation plane. ΔmP values were plotted as a function of compound concentration and the data were analyzed with a 4-parameter fit using GraphPad Prism software.

phospho-akt (Thr308) = phospho-akt (Thr308) MSD ELISA in PC-3 cells; assay type: cell-based; settings: Homo sapiens; for EC50: PC-3, 2 h; for inhibition at 1 µM / inhibition at 10 µM: read-out: Percent Inhibition of phospho-Akt (308) By MSD ELISA
Summary of the method: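 Read-out is MSD electrochemiluminescence after lysate capture overnight at 4 degrees and 1 hr RT detection-antibody step. Before lysis, overnight-plated PC-3 cells received three-fold serial dilutions of inhibitor in serum-free medium, with DMSO-only high controls.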

phosphorylated PDK1 = phosphorylated PDK1 (Homo sapiens (Human), UniProt O15530); assay: PDK1 kinase assay (coupled PDK1/AKT/FAM-crosstide, IMAP); assay type: biochemical; settings: 0.5 nM phosphorylated PDK1, 24 μM ATP; read-out: Inhibition of phospo-PDK1 in vitro IC50
[1] = PC-3 cells, 2 hours, no serum, read-out: Inhibition of P308 Akt in cells using MSD EC50
[2] = PC-3 cells, 2 hours, no serum, read-out: Reduction of Cellular Levels of Akt p308 By MSD ELISA (EC50 μM)
[3] = read-out: Inhibition of P308 Akt in cells using MSD EC50
[4] = read-out: Reduction of Cellular Levels of Akt p308 By MSD ELISA (EC50 μM)

Sequence of dephosphorylated PDK1 (O15530 51-360): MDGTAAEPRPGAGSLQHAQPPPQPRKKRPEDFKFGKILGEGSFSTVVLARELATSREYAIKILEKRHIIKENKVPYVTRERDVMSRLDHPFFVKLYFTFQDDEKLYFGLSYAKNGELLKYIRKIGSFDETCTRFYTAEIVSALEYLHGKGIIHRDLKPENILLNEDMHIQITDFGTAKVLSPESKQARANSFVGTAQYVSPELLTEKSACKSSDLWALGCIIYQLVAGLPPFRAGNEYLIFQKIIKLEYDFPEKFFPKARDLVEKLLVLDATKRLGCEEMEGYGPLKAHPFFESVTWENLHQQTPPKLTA
Sequence of phosphorylated PDK1 (O15530 51-360): as above

Structure (SMILES)	IC50 (dephosphorylated PDK1) [nM]	EC50 (phospho-akt (Thr308); [1]) [µM]	EC50 (phospho-akt (Thr308); [2]) [µM]	IC50 (phosphorylated PDK1) [nM]	inhibition at 1 µM (phospho-akt (Thr308); PC-3 cells) [%]	inhibition at 10 µM (phospho-akt (Thr308); PC-3 cells) [%]	EC50 (phospho-akt (Thr308); [3]) [µM]	EC50 (phospho-akt (Thr308); [4]) [µM]
O=C(NCc1noc(-c2c[nH]c3ncccc23)n1)c1cccn(Cc2ccc(C(F)(F)F)cc2)c1=O [Cpd 143]	< 500	> 5	> 5	< 500	–	–	–	–
O=C(NCc1ccc(-c2ccc3[nH]ncc3c2)s1)c1cccn(Cc2ccc(F)c(F)c2)c1=O [Cpd 52]	< 500	1 to 5	–	< 500	–	–	–	–
O=C(NCc1csc(-c2c[nH]c3ncccc23)n1)c1cccn(Cc2ccc(F)c(F)c2)c1=O [Cpd 121]	< 500	< 1	–	< 500	–	–	–	–
O=C(NCc1cccc(-c2ccc3cn[nH]c3c2)c1)c1cccn(Cc2ccc(F)c(F)c2)c1=O [Cpd 328]	< 500	> 5	–	< 500	–	–	–	–
O=C(NCc1cccc(-c2ccc(=O)[nH]c2)c1)c1cccn(Cc2ccc(F)c(F)c2)c1=O [Cpd 220]	500 to 10000	–	–	500 to 10000	25 to 75	25 to 75	–	–
NC(=O)C(NC(=O)c1cccn(Cc2ccc(F)c(F)c2)c1=O)c1ccc(-c2c[nH]c3ncccc23)s1 (stereo not drawn) [Cpd 24]	< 500	–	–	< 500	–	–	1 to 5	1 to 5
CNc1nc(-c2ccc(CNC(=O)c3cccn(Cc4ccc(F)c(F)c4)c3=O)s2)cn2ccnc12 [Cpd 325]	< 500	> 5	–	500 to 10000	–	–	–	–
O=C(NCc1noc(-c2c[nH]c3ncccc23)n1)c1cc(Cl)cn(Cc2ccc(Cl)c(F)c2)c1=O [Cpd 316]	< 500	–	–	< 500	25 to 75	25 to 75	–	–
O=C(NCc1cnc(-c2c[nH]c3ncccc23)s1)c1cccn(Cc2ccc(Cl)c(Cl)c2)c1=O [Cpd 323]	< 500	1 to 5	1 to 5	< 500	–	–	–	–
O=C(NCc1cccc(-c2c[nH]c3cnccc23)c1)c1cccn(Cc2ccc(F)c(F)c2)c1=O [Cpd 242]	< 500	–	–	500 to 10000	< 25	> 75	–	–
CNc1nc(-c2cccc(CNC(=O)c3cccn(Cc4ccc(F)c(F)c4)c3=O)c2)cn2ccnc12 [Cpd 326]	500 to 10000	> 5	–	500 to 10000	–	–	–	–
O=C(NCc1cccc(-c2ccc3[nH]ncc3c2)c1)c1cccn(Cc2ccc(F)c(F)c2)c1=O [Cpd 213]	< 500	–	1 to 5	< 500	–	–	–	–
O=C(NCc1noc(-c2c[nH]c3ncccc23)n1)c1cccn(Cc2cc(F)cc(F)c2)c1=O [Cpd 150]	< 500	> 5	–	< 500	–	–	–	–
O=C1Cc2ccc(/C=C/CNC(=O)c3cccn(Cc4cc(F)c(F)c(F)c4)c3=O)cc2N1 [Cpd 166]	< 500	> 5	–	< 500	–	–	–	–
COC(=O)C[C@@H](NC(=O)c1cccn(Cc2ccc(F)c(F)c2)c1=O)c1ccc(-c2c[nH]c3ncccc23)s1 [Cpd 236]	< 500	–	> 5	500 to 10000	–	–	–	–
O=C(N[C@@H](COc1ccc2[nH]c(=O)[nH]c2c1)Cc1ccccc1)c1cccn(Cc2ccc(F)c(F)c2)c1=O [Cpd 321]	< 500	> 5	–	< 500	< 25	> 75	–	–
O=C(NCc1cccc(-c2ccc3ncnn3c2)c1)c1cccn(Cc2ccc(F)c(F)c2)c1=O [Cpd 3]	< 500	–	1 to 5	< 500	< 25	> 75	–	–
O=C(NCCOc1ccc2c(c1)[nH]c(=O)n2C1CC1)c1cccn(Cc2ccc(F)c(F)c2)c1=O [Cpd 282]	< 500	> 5	–	< 500	< 25	25 to 75	–	–
O=C1Cc2ccc(/C=C/CNC(=O)c3cc(Cl)cn(Cc4cc(F)c(F)c(F)c4)c3=O)cc2N1 [Cpd 193]	< 500	–	–	< 500	–	–	> 5	–

Structure (SMILES)	IC50 (dephosphorylated PDK1) [nM]	EC50 (phospho-akt (Thr308); [1]) [µM]	EC50 (phospho-akt (Thr308); [2]) [µM]	IC50 (phosphorylated PDK1) [nM]	inhibition at 1 µM (phospho-akt (Thr308); PC-3 cells) [%]	inhibition at 10 µM (phospho-akt (Thr308); PC-3 cells) [%]	EC50 (phospho-akt (Thr308); [3]) [µM]	EC50 (phospho-akt (Thr308); [4]) [µM]
O=C(Nc1cccc(Cc2c[nH]c3ncccc23)c1)c1cccn(Cc2ccc(F)c(F)c2)c1=O [Cpd 128]	< 500	> 5	–	500 to 10000	–	–	–	–
O=C(O)C[C@@H](NC(=O)c1cccn(Cc2ccc(F)c(F)c2)c1=O)c1ccc(-c2c[nH]c3ncccc23)s1 [Cpd 15]	< 500	–	–	< 500	–	–	–	> 5
O=C(NCc1ccc(-c2cccc3[nH]ncc23)s1)c1cccn(Cc2ccc(F)c(F)c2)c1=O [Cpd 58]	< 500	1 to 5	–	< 500	–	–	–	–
O=C(NCc1ccc(-c2c[nH]c3ncc(Cl)cc23)s1)c1cccn(Cc2ccc(F)c(F)c2)c1=O [Cpd 23]	< 500	> 5	> 5	< 500	–	–	–	–
O=C(N[C@H](COc1ccc2[nH]c(=O)[nH]c2c1)c1ccc(F)cc1)c1cccn(Cc2ccc(C(F)(F)F)cc2)c1=O [Cpd 148]	< 500	1 to 5	1 to 5	< 500	–	–	–	–
CN(C)C(=O)C[C@@H](NC(=O)c1cccn(Cc2ccc(F)c(F)c2)c1=O)c1ccc(-c2c[nH]c3ncccc23)s1 [Cpd 237]	< 500	> 5	–	< 500	< 25	25 to 75	–	–
Nc1cc(C(=O)NCc2noc(-c3c[nH]c4ncccc34)n2)c(=O)n(Cc2cc(F)c(F)c(F)c2)c1 [Cpd 187]	< 500	> 5	–	< 500	–	–	–	–
Cc1ccc(NC(=O)c2cccn(Cc3ccc(F)c(F)c3)c2=O)cc1-c1ccc2[nH]c(=O)[nH]c2c1 [Cpd 167]	500 to 10000	> 5	–	500 to 10000	–	–	–	–
C[C@@H](c1ccc(F)cc1)n1cccc(C(=O)NCc2noc(-c3c[nH]c4ncccc34)n2)c1=O [Cpd 311]	< 500	–	–	< 500	< 25	> 75	–	–
CCC[C@H](COc1ccc2[nH]c(=O)[nH]c2c1)NC(=O)c1cccn(Cc2ccc(F)c(F)c2)c1=O [Cpd 322]	< 500	1 to 5	1 to 5	< 500	–	–	–	–
O=C(NCc1nnc(-c2c[nH]c3ncccc23)o1)c1cccn(Cc2ccc(F)c(F)c2)c1=O [Cpd 125]	< 500	1 to 5	1 to 5	< 500	25 to 75	> 75	–	–
O=C(N[C@H]1CC[C@@H](c2c[nH]c3ncccc32)CC1)c1cccn(Cc2ccc(F)c(F)c2)c1=O [Cpd 1]	< 500	> 5	> 5	< 500	–	–	–	–
O=C(NCc1cccc(-c2c[nH]c3ncc(-c4ccco4)cc23)c1)c1cccn(Cc2ccc(F)c(F)c2)c1=O [Cpd 57]	< 500	–	–	< 500	–	–	–	–
COc1ccnc(NCCCCCNC(=O)c2cccn(Cc3ccc(F)c(Cl)c3)c2=O)n1 [Cpd 266]	< 500	–	–	500 to 10000	–	–	–	–
O=C(NCc1nc(-c2c[nH]c3ncccc23)c[nH]1)c1cccn(Cc2ccc(F)c(F)c2)c1=O [Cpd 116]	< 500	–	–	500 to 10000	–	–	–	–
COc1ccnc(NCCCCCNC(=O)c2cccn(Cc3cccc(Cl)c3)c2=O)n1 [Cpd 101]	500 to 10000	–	–	500 to 10000	–	–	–	–
COc1ccnc(NCCC#CCCNC(=O)c2cc(Cl)cn(C(C)c3ccc(Cl)cc3)c2=O)n1 (stereo not drawn) [Cpd 106]	< 500	–	–	< 500	–	–	–	–
O=C(NCc1nnc(-c2c[nH]c3ncccc23)s1)c1cccn(Cc2ccc(F)c(F)c2)c1=O [Cpd 124]	< 500	–	–	< 500	–	–	–	–
O=C(NCc1cc(-c2c[nH]c3ncccc23)[nH]n1)c1cccn(Cc2ccc(F)c(F)c2)c1=O [Cpd 142]	< 500	–	–	< 500	–	–	–	–
